Article PMC10763578 (Cell host & microbe, 2023)

Target: CgaA (cytosolic glutathione amidotransferase A; FTN_0435) (Francisella tularensis, UniProt A0Q523)
Settings: 10 mM substrate, 1 uM enzyme, 60 min, 300 mM NaCl, 50 mM Tris-Cl pH 8.5, 37 °C

Chain of CgaA (cytosolic glutathione amidotransferase A; FTN_0435) (A0Q523 1-235): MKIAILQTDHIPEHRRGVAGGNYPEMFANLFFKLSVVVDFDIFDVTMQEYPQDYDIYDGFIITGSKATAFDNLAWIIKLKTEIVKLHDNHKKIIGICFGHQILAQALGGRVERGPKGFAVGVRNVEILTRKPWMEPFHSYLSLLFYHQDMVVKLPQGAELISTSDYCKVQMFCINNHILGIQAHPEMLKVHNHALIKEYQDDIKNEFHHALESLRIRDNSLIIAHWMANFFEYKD

NC(=O)CC[C@H](N)C(=O)O [Gln, glutamine]
glutamate release, coupled colorimetric kit (A450): we detected only a low level of glutamate accumulation following incubation of CgaA with glutamine
